Laboratory results taken from patent US20060084172A1, “Method for producing stem cells with increased developmental potential” (Julius-Maximilians-Unversitat Wurzburg, priority 2001, published 2006).

What was measured:
mouse blastocysts = assay: Injection of treated neural stem cells into blastocysts, Y chromosome-specific PCR of tissues of chimeric animals; assay type: in vivo; conditions: treated neural stem cells injected into blastocysts, animals examined at 4 weeks, FIG. 4b versus untreated FIG. 4a
Text: In order to determine the plasticity of the employed somatic stem cell types, neural and hematopoietic stem cells of the Examples 1 and 2 were isolated and injected into mouse blastocysts (see FIG. 2). From the blastocyst develops the complete embryo and later the adult animal. By this method, the injected stem cells are subjected to all inductive processes, which take place during the development of the embryo. If the used hematopoietic or neural stem cells should have the capability to differentiate to all or many tissues or cell types of the adult animal, then descendants of the injected stem cells should be detectable for the developed animal in several different or all tissues and organs. If this detection is positive and the donor cells carry foreign, tissue-specific markers and perform foreign, tissue-specific functions, then the treatment of the somatic stem cells has led to an increased plasticity.
In order to investigate the development potential of somatic stem cells treated according to Example 4, neural stem cells of Example 4 (from male animals) were washed and injected (20-40 pieces) into blastocysts, which were isolated from superovulated females after object pairing. […] Male donor cells, which originate from the injected neural stem cells (NSC), were detected by a Y chromosome-specific PCR reaction (YMT primer). […]

Oct4 gene = assay: Oct4-gene specific RT-PCR after incubation of neural stem cells; assay type: cell-based, mouse; conditions: 2-day incubation of neural stem cells (NSC #417, NSC #125); 150-250 nanomolar Trichostatin A and/or 300-600 nanomolar 5-aza-2′ deoxycytidine; HPRT normalization
Protocol: For investigating whether the incubation of adult neural stem cells of Example 1 with deacetylase inhibitors (e.g. Trichostatin A) and/or nucleotide analogs (e.g. 5-aza-2′ deoxycytidine), which prevent a methylation, influences the gene expression, the stem cells were incubated with one of these substances or a mixture of these substances. This was performed in Neurobasal medium, B27 supplement, 20-40 ng EGF, 20-40 ng FGF-2, 150-250 nanomolar Trichostatin A and/or 300-600 nanomolar 5-aza-2′ deoxycytidine for 2 or 4 days. Subsequently to the incubation, RNA was isolated from the cells, and cDNA was produced by means of the enzyme reverse transcriptase. By using gene-specific primers, the gene expression of the Oct4 gene was investigated. The Oct4 gene serves as an example of a development-specific regulator gene. It is only active in very early development stages (zygote, morula, blastula). Later, the expression is restricted to germ cells. The Oct4 gene is not transcribed in the adult organism outside the germ cells, thus also not in somatic stem cells. The Oct4 gene is thus only active in cells, which have a development potential larger than that of the somatic stem cells [see Pesce M, Anastassiedies K, Scholer H R (1999) Oct4: lessons of totipotency from embryonic stem cells. Cells Tissues Organs 165:144-152]. […] Under these conditions, no Oct4 expression was detected anymore. […]

`CC(/C=C/C(=O)NO)=C\[C@@H](C)C(=O)c1ccc(N(C)C)cc1` [Trichostatin A] was tested, and the “distribution spectrum of donor cells in tissues” value (mouse blastocysts) was “substantially wider distribution spectrum” and the “Oct4 gene expression (RT-PCR)” value (Oct4 gene) was “reactivates the Oct4 gene”.
